Reference: PubChem BioAssay (NCI)
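Tested at 5 concentrations; 48 h exposure; 96-well plates; endpoints linearly interpolated, else capped at highest concentration. GI50 marks 50% less growth. TGI: concentration producing complete growth inhibition.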

Experiments:
Assay in all cases: NCI tumour cell line growth inhibition, 48 h
[1] = tested on: M14 melanoma
[2] = tested on: UO-31 renal
[3] = tested on: HCT-15 colon
[4] = tested on: SF-295 CNS
[5] = tested on: MOLT-4 leukemia
[6] = tested on: HOP-62 NSCLC
[7] = tested on: EKVX NSCLC
[8] = tested on: K-562 leukemia
[9] = tested on: SW-620 colon
[10] = tested on: IGROV1 ovarian
[11] = tested on: UACC-257 melanoma
[12] = tested on: HCC-2998 colon
[13] = tested on: SK-OV-3 ovarian
[14] = tested on: NCI-H522 lung
[15] = tested on: NCI-H226 lung
[16] = tested on: 786-0 renal
[17] = tested on: DU-145 prostate
[18] = tested on: CAKI-1 renal
[19] = tested on: NCI/ADR-RES ovarian
[20] = tested on: SF-539 CNS
[21] = tested on: MALME-3M melanoma
[22] = tested on: U251 CNS
[23] = tested on: LOX IMVI melanoma
[24] = tested on: PC-3 prostate
[25] = tested on: NCI-H460 lung
[26] = tested on: SR leukemia
[27] = tested on: SNB-19 CNS
[28] = tested on: HOP-92 NSCLC
[29] = tested on: RXF 393 renal
[30] = tested on: TK-10 renal
[31] = tested on: SK-MEL-28 melanoma
[32] = tested on: SK-MEL-5 melanoma
[33] = tested on: OVCAR-3 ovarian
[34] = tested on: HS 578T breast
[35] = tested on: RPMI-8226 leukemia
[36] = tested on: A498 renal
[37] = tested on: OVCAR-5 ovarian
[38] = tested on: HL-60(TB) leukemia
[39] = tested on: OVCAR-8 ovarian
[40] = tested on: SK-MEL-2 melanoma
[41] = tested on: OVCAR-4 ovarian
[42] = tested on: MDA-MB-435
[43] = tested on: NCI-H23 lung
[44] = tested on: SF-268 CNS
[45] = tested on: KM12 colon
[46] = tested on: MDA-MB-231 breast
[47] = tested on: SN12C renal
[48] = tested on: ACHN renal
[49] = tested on: CCRF-CEM leukemia
[50] = tested on: UACC-62 melanoma
[51] = tested on: MDA-MB-468 breast
[52] = tested on: A549 NSCLC
[53] = tested on: HCT-116 colon

Question: What does the source list for `CN(C)CCn1c2ccccc2c2nc3ccc([N+](=O)[O-])cc3nc21`?
Answer: GI50 [1]: 1710 nM; TGI [1]: > 100000 nM; GI50 [2]: 248 nM; TGI [2]: 1990 nM; GI50 [3]: 725 nM; TGI [3]: 4060 nM; GI50 [4]: 477 nM; TGI [4]: 3090 nM; GI50 [5]: 410 nM; TGI [5]: 2900 nM; GI50 [6]: 1080 nM; TGI [6]: 4760 nM; GI50 [7]: 1600 nM; TGI [7]: 5000 nM; GI50 [8]: 931 nM; TGI [8]: 11300 nM; GI50 [9]: 691 nM; TGI [9]: > 100000 nM; GI50 [10]: 1070 nM; TGI [10]: 9460 nM; GI50 [11]: 1860 nM; TGI [11]: 5950 nM; GI50 [12]: 1470 nM; TGI [12]: 3720 nM; GI50 [13]: 2490 nM; TGI [13]: 7500 nM; GI50 [14]: 988 nM; TGI [14]: 4220 nM; GI50 [15]: 1270 nM; TGI [15]: 3260 nM; GI50 [16]: 1310 nM; TGI [16]: 6550 nM; GI50 [17]: 1710 nM; TGI [17]: 9910 nM; GI50 [18]: 368 nM; TGI [18]: 2710 nM; GI50 [19]: 1280 nM; TGI [19]: 11900 nM; GI50 [20]: 645 nM; TGI [20]: 3850 nM; GI50 [21]: 709 nM; TGI [21]: 3410 nM; GI50 [22]: 772 nM; TGI [22]: 3960 nM; GI50 [23]: 541 nM; TGI [23]: 1950 nM; GI50 [24]: 1140 nM; TGI [24]: > 100000 nM; GI50 [25]: 395 nM; TGI [25]: 2190 nM; GI50 [26]: 322 nM; TGI [26]: 1690 nM; GI50 [27]: 2320 nM; TGI [27]: 10400 nM; GI50 [28]: 197 nM; TGI [28]: 2290 nM; GI50 [29]: 1830 nM; TGI [29]: 5830 nM; GI50 [30]: 2350 nM; TGI [30]: 6370 nM; GI50 [31]: 2540 nM; TGI [31]: > 100000 nM; GI50 [32]: 666 nM; TGI [32]: 2050 nM; GI50 [33]: 2010 nM; TGI [33]: 7340 nM; GI50 [34]: 2160 nM; TGI [34]: > 100000 nM; GI50 [35]: 1230 nM; TGI [35]: 4300 nM; GI50 [36]: 1740 nM; TGI [36]: 4560 nM; GI50 [37]: 2310 nM; TGI [37]: 6510 nM; GI50 [38]: 256 nM; TGI [38]: 698 nM; GI50 [39]: 907 nM; TGI [39]: 5510 nM; GI50 [40]: 3270 nM; TGI [40]: 7640 nM; GI50 [41]: 2760 nM; TGI [41]: > 100000 nM; GI50 [42]: 2300 nM; TGI [42]: > 100000 nM; GI50 [43]: 1200 nM; TGI [43]: 3640 nM; GI50 [44]: 1750 nM; TGI [44]: 13200 nM; GI50 [45]: 1530 nM; TGI [45]: 9150 nM; GI50 [46]: 1870 nM; TGI [46]: 5700 nM; GI50 [47]: 813 nM; TGI [47]: 4620 nM; GI50 [48]: 322 nM; TGI [48]: 1100 nM; GI50 [49]: 667 nM; TGI [49]: 4370 nM; GI50 [50]: 928 nM; TGI [50]: 2900 nM; GI50 [51]: 514 nM; TGI [51]: 2270 nM; GI50 [52]: 438 nM; TGI [52]: 1830 nM; GI50 [53]: 752 nM; TGI [53]: 5940 nM
